Laboratory results from patent publication US20140243411A1 (priority 2011, published 2014).

Experiment: In vitro percutaneous permeation of C2E5 nonaqueous gel spiked with [14C]-C2E5
Assay type: in vitro ADME, Sprague-Dawley (SD) rat
Experimental: An in vitro permeation study was carried out using a vertical diffusion cell system equipped with an autosampler (Hanson Microette Autosampling System, Hanson Research Co., USA). The area for permeation was 1.767 cm^2, and the receiver compartment volume was 7 mL. The experiments were run at 32° C. and stirred magnetically at 400 rpm. The receiver medium was 0.1M phosphate buffer (pH 7.4). SD rat skin samples were prepared by harvesting dorsal skin samples from freshly euthanized (<1 h) SD rats (n=9, 200-300 g). The skin was shaved and the subcutaneous fat tissue was carefully peeled from the dermis layer to remove potential interference due to high levels of esterase activity in subcutaneous tissue. The processed skin samples were inspected visually for membrane integrity. The qualified skin samples were stored at −20° C. until use. The SD rat skin samples were first allowed to thaw for at least 1 h in the receiver medium, and then mounted and clamped between the receiver and donor compartments of the diffusion cells. […] ([^14C]-C2E5; 50 mCi/mmol) labeled at carbon-1 (carbonyl carbon) was purchased from American Radiolabeled Chemicals, Inc., St. Louis, Mo.).
Collected samples were dispensed into Ultima Gold™ scintillation cocktail at a ratio of 100 μL:10 mL and assayed directly for radioactivity by liquid scintillation counting (LSC) using a Packard TriCarb 3100TR (PerkinElmer Life and Analytical Sciences) with automatic quench correction. Samples were counted for 10 min or until a 5% confidence level was achieved. The samples were subsequently assayed for intact C2E5 and its metabolites using HPLC-FSA. The cumulative releases of C2E5 and its metabolites were plotted as a function of time.
Fick's law (Equation 4) has been used as a simple model to describe the steady-state diffusion of drug through the skin:
where Jss=steady-state flux (mol/hr); D=drug diffusivity (cm^2/hr); h=membrane thickness (cm); Ksc/veh=drug's stratum corneum-vehicle partition coefficient; Cveh=drug concentration (mg/cm^3) in the vehicle; and A=surface area (cm^2). The cumulative amount of C2E5 and its metabolites permeated through the SD rat skin versus time is presented in FIG. 1, The overall concentrations of C2E5 and its metabolites in receiver compartment at different time points were calculated based on Equation 5.
The concentrations of C2E5 and its metabolites in the collected samples from the receiver compartment at different time points were analyzed by HPLC-FSA.

CCOC(=O)CN(CCN(CC(=O)OCC)CC(=O)OCC)CCN(CC(=O)OCC)CC(=O)OCC [Formulation C2E5, penta-substituted ethyl ester of DTPA]
cumulative amount of C2E5 and its metabolites permeated through the rat skin (at 8 h): 1.98 μmol/cm^2
initially applied C2E5 dose permeated through the rat skin (C2E5 and its metabolites) (at 8 h, gel 6% EC10, 25% C2E5, 69% MIGLYOL 840): ~10%
cumulative amount of C2E5 and its metabolites permeated through the rat skin (at 23 h): 3.55 μmol/cm^2
diffusional lag time through SD rat skin (gel 6% EC10, 25% C2E5, 69% MIGLYOL 840): 0.33 h
Jss per unit area through SD rat skin (steady-state between 2 h and 7 h, gel 6% EC10, 25% C2E5, 69% MIGLYOL 840): 0.276 μmol/cm^2/h
